The target of series [1] is T1, 11-beta-hydroxysteroid dehydrogenase type 2 (Homo sapiens, UniProt P80365).
T1 sequence (P80365 whole entry): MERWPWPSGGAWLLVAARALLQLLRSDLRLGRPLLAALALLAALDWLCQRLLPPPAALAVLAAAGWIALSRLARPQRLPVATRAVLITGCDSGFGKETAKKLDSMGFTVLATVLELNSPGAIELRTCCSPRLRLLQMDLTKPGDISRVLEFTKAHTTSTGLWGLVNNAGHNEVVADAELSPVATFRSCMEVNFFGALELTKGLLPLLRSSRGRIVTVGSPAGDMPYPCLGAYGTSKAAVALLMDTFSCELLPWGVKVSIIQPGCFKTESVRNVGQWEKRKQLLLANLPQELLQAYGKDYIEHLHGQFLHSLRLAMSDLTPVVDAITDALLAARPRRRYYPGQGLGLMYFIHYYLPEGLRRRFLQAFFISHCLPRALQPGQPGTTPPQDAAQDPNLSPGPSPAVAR
Put plainly: biochemical.
Description: Binding affinity to human 11beta HSD2 in HEK293 cells by scintillation proximity assay

Series [2] concerns the target 11-beta-hydroxysteroid dehydrogenase 1 (Homo sapiens, UniProt P28845).
Description: Binding affinity to human 11beta HSD1 expressed in Escherichia coli by scintillation proximity assay
Series [3] has as its system Plasma. The series can be described thus: Protein binding in C57BL/6 mouse plasma assessed as fraction unbound at 30 mg/kg, po after 6 hrs. The format is ADME, organism-based. The arrangement: dose 30 mg/kg, route oral. Particulars: in vivo.
In series [4] the test system is Mus musculus. Put plainly: Ex vivo inhibition of 11beta HSD1 activity in C57BL/6 mouse liver at 30 mg/kg, po after 2 hrs. The arrangement: scale not given: the % may be the effect or the level left. In kind it is functional.
The target in series [5] is 11-beta-hydroxysteroid dehydrogenase 1 (Mus musculus, UniProt P50172). The series can be described thus: Binding affinity to C57BL/6 mouse recombinant 11beta HSD1 by scintillation proximity assay. On the technique in general: Scintillation proximity formats need no separation of bound from free tracer.
Sequence of 11-beta-hydroxysteroid dehydrogenase 1 (Mus musculus, UniProt P50172) (P50172 whole entry): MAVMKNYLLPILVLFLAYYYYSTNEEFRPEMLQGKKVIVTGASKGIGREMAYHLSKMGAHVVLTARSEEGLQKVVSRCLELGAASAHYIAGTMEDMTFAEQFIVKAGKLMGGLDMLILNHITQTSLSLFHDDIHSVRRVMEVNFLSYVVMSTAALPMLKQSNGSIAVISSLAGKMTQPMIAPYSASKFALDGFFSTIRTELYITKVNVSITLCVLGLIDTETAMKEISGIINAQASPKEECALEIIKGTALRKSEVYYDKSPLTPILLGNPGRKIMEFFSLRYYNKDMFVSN
A short description of series [6]: Clearance in rat at 0.5 mg/kg, iv. The format is ADME, organism-based. More on the design: dose 0.5 mg/kg, route intravenous. Particulars: in vivo.
A short description of series [7]: Volume of distribution at steady state in rat at 0.5 mg/kg, iv. In kind it is ADME, organism-based. The arrangement: dose 0.5 mg/kg, route intravenous. The conditions noted are these: in vivo, read-out: Vdss.
Series [8] can be described thus: Oral bioavailability in rat at 2 mg/kg. The format is ADME, organism-based. Particulars: in vivo.
The target of series [9] is 11-beta-hydroxysteroid dehydrogenase 1 (Rattus norvegicus, UniProt P16232). The series can be described thus: Binding affinity to rat recombinant 11beta HSD1 by scintillation proximity assay.
Sequence of 11-beta-hydroxysteroid dehydrogenase 1 (Rattus norvegicus, UniProt P16232) (P16232 whole entry): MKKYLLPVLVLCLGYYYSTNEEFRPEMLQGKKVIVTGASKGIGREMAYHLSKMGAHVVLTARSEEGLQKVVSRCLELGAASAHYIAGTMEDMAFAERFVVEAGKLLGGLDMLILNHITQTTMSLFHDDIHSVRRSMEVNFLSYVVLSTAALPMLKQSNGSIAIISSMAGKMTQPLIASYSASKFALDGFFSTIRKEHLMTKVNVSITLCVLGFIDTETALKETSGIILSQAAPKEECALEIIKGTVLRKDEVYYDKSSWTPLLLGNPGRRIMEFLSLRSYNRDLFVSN
In series [10] the test system is Plasma. The series can be described thus: Protein binding in C57BL/6 mouse plasma assessed as fraction unbound at 30 mg/kg, po after 2 hrs. In kind it is ADME, organism-based. The arrangement: dose 30 mg/kg, route oral. Particulars: in vivo.
For series [11], the system named is Mus musculus. Put plainly: Ex vivo inhibition of 11beta HSD1 activity in C57BL/6 mouse liver at 30 mg/kg, po after 6 hrs. The arrangement: scale not given: the % may be the effect or the level left. The format is functional.
Series [12] relates to Mus musculus. Put plainly: Ex vivo inhibition of 11beta HSD1 activity in C57BL/6 mouse adipose tissue at 30 mg/kg, po after 2 hrs. More on the design: scale not given: the % may be the effect or the level left. In kind it is functional.
The nature of series [13]: Ratio of Ki for mouse 11beta HSD1 over Ki for human 11beta HSD1.
A short description of series [14]: Plasma concentration in C57BL/6 mouse plasma at 30 mg/kg, po after 6 hrs. More on the design: dose 30 mg/kg, route oral. The format is ADME, organism-based.
The subject of a further series is Rattus norvegicus. Put plainly: AUC(0 to infinity) in rat at 2 mg/kg, po. The format is ADME, organism-based, Plasma. The arrangement: time infinity, dose 2 mg/kg, route oral. The conditions noted are these: in vivo.
Series [15] is described as follows: Plasma concentration in C57BL/6 mouse plasma at 30 mg/kg, po after 2 hrs. In kind it is ADME, organism-based. More on the design: dose 30 mg/kg, route oral.
The nature of series [16]: Tmax in rat at 2 mg/kg, po. The format is ADME, organism-based. More on the design: dose 2 mg/kg, route oral. Particulars: in vivo.
For series [17], the system named is Mus musculus. Put plainly: Ex vivo inhibition of 11beta HSD1 activity in C57BL/6 mouse adipose tissue at 30 mg/kg, po after 6 hrs. In kind it is functional. More on the design: scale not given: the % may be the effect or the level left.
The nature of series [18]: Half life in rat at 2 mg/kg, po. In kind it is ADME, organism-based. More on the design: dose 2 mg/kg, route oral. The conditions noted are these: in vivo.

Some results are limits rather than exact numbers.

Sequence of 11-beta-hydroxysteroid dehydrogenase 1 (Homo sapiens, UniProt P28845) (P28845 whole entry): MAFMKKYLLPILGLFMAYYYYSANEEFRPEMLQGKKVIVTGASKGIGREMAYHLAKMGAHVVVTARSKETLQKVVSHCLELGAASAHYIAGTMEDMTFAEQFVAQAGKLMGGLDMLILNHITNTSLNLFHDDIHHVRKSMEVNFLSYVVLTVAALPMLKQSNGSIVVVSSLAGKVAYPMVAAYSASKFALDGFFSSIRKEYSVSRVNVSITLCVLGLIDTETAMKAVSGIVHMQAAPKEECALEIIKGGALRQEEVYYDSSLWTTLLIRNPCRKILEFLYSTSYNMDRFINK

As a reminder, the IC50 is the concentration that inhibits the measured activity by half. Usually Ki stands for the dissociation constant of the complex between target and ligand, obtained from inhibition or displacement. Consider `CCCC1(C)SC(NC2CCCCCC2)=NC1=O` (racemic), for which the IC50 in series [1] is more than 10000 nM. This compound had a Ki in series [2] of 32 nM.
In turn, `CCC1(C)SC(NC2C(C)(C)C2(C)C)=NC1=O` (racemic) registered a Ki in series [2] of 58 nM.
In the case of `CCC1(C)SC(NC2C3CCC2CC3)=NC1=O` (racemic), in series [2], the Ki came out at 372 nM.
Regarding `CCCC1(C)SC(NC23CC4CC(CC(C4)C2)C3)=NC1=O` (racemic), the Ki in series [2] was determined as 24 nM.
Compound `CCC1(C)SC(NC23CC4CC(CC(C4)C2)C3)=NC1=O` (racemic) gave a Ki in [2] of 24 nM.
Consider `CCCC1(C)SC(NCC2CCCCC2)=NC1=O` (racemic), for which the Ki in [2] came out at 34 nM.
`CCCC1(C)SC(NC2C(C)(C)C2(C)C)=NC1=O` (racemic): the Ki in series [2] is 38 nM.
Turning to `CCC1(C)SC(NC2CCCCCC2)=NC1=O` (racemic), in series [1], the IC50 was more than 10000 nM. Affinity in series [2] was put at a Ki of 82 nM.
As for `CCC1(C)SC(NC2CCCCCCC2)=NC1=O` (racemic), the IC50 in series [1] was more than 10000 nM. The compound further registered a Ki in series [2] of 47 nM.
The term clearance denotes a measure of how efficiently the substance is removed, as volume per time. A word on the bioavailability: it is the share of a dose that reaches the circulation, judged against a reference dose that is usually intravenous. As usually defined, the AUC is the area under the concentration-time curve, a measure of exposure. By Tmax is commonly meant the time at which the peak concentration occurs. By half-life is commonly meant the time needed for the level to fall by half in the phase considered. As for `O=C1N=C(NC23CC4CC(CC2C4)C3)SC12CCCC2`, the Activity in the series with Plasma [3] is recorded as 44 nM; in the series on Mus musculus [4], 89%; in the series on Plasma [10] it was 120 nM; in the series on Mus musculus [11] it was 79%; in the series with Mus musculus [12], 86%; in the series on Mus musculus [17] it was 87%. The Fu with Plasma [3] and in the series with Plasma [10] was 0.63% each time. Besides, the Ki amounted to 120 nM in series [5], 180 nM in series [9] and 3 nM in series [2]. Besides, the clearance in series [6] is 104 mL/min/kg. For the same compound, in series [7], the Vd amounted to 1.84 L/kg. The bioavailability in series [8] came out at 45%. Further, the Ratio Ki in series [13] was found to be 40. The concentration at 6 h in series [14] was determined as 7.3 µM. Also, the AUC in the series with Rattus norvegicus amounted to 175 ng·h/mL. In series [1], this compound came in with an IC50 of more than 10000 nM. For the same compound, the concentration at 2 h in [15] was 20 µM. The Tmax in [16] is 2.5 h. The compound further showed a half-life in series [18] of 2 h.
`CCC1SC(Nc2ccccc2C)=NC1=O` (configuration not stated): the IC50 in [1] was more than 10000 nM. Further, affinity in series [2] was put at a Ki of 189 nM.
In the case of `CCC1(C)SC(NC2CCCCC2)=NC1=O` (racemic), the affinity in [2], expressed as Ki, was 126 nM.
`CCC1(C)SC(NC23CC4CC(CC2C4)C3)=NC1=O` (racemic) returned a half-inhibitory concentration (IC50) in series [1] of more than 10000 nM. This compound showed a Ki in series [2] of 13 nM.
`CCC1(CC)SC(NC2CCCCCCC2)=NC1=O` yielded an IC50 in [1] of more than 10000 nM. This compound returned a Ki in series [2] of 26 nM.
In the case of `CCC1(C)SC(NCC2CCCCC2)=NC1=O` (racemic), in series [2], the Ki came out at 64 nM.
`CCC1(CC)SC(NC23CC4CC(CC(C4)C2)C3)=NC1=O`: in [2], the Ki came out at 20 nM.
In turn, `CCCC1(C)SC(NC2C3CCC2CC3)=NC1=O` (racemic) displayed a half-maximal inhibitory concentration (IC50) in [1] of more than 10000 nM. The compound also had a Ki in series [2] of 149 nM.
Compound `CCC1(CC)SC(NC23CC4CC(CC2C4)C3)=NC1=O` displayed an IC50 in series [1] of more than 10000 nM. This compound came in with a Ki in series [2] of 13 nM.
Consider `CCCC1(C)SC(NC23CCC(CC2)C3)=NC1=O` (racemic), for which affinity in series [2] was put at a Ki of 25 nM.
Still for that read-out and setting: under `CCC1(C)SC(Nc2ccccc2F)=NC1=O` (configuration not stated) stands 151 nM.
As to `O=C1N=C(NC2CCCCCCC2)SC12CCCC2`, the IC50 in [1] is more than 10000 nM. Moreover, in [2], the Ki is 14 nM.
Taken in the same sequence, the figures for `CCCC1(C)SC(NC2CCCCCCC2)=NC1=O` (racemic) were more than 10000 nM and 28 nM.
In series [2], `CCCC1(C)SC(NC23CC4CC(CC2C4)C3)=NC1=O` (racemic) had a Ki of 12 nM.
For the compound `CCC1(C)SC(NC23CCC(CC2)C3)=NC1=O` (racemic), the half-inhibitory concentration (IC50) in series [1] is more than 10000 nM. For the same compound, the affinity in series [2] corresponds to a Ki of 73 nM.
With `O=C1N=C(NC23CC4CC(CC(C4)C2)C3)SC12CCCC2`, in series [2], the Ki worked out at 28 nM.
Same read-out and setting: the result for `CCCC1(C)SC(NC2CCCCC2)=NC1=O` (racemic) reads 55 nM.

The values are drawn from ChEMBL document CHEMBL1150276, “2-amino-1,3-thiazol-4(5H)-ones as potent and selective 11beta-hydroxysteroid dehydrogenase type 1 inhibitors: enzyme-ligand co-crystal structure and demonstration of pharmacodynamic effects in C57Bl/6 mice” (J Med Chem, 2008).
